Like-named read-outs stand apart in the source and are kept apart here.
Molecular target: T1, α5β3γ2 receptor (Homo sapiens, UniProt P18507+P31644)
T1 construct: expressed in transfected cells; host or cells: HEK-293 (stably transfected)
Experiment: Cell level screening: whole cell patch clamp, inverse agonist efficacy
Assay type: cell-based
Settings: for inverse agonism efficacy of the compound/α5IA inverse agonism efficacy: ratio to α5IA, compound 100 nM; for inhibition at 0.001 µM: Con. 1 nM; for inhibition at 0.01 µM: Con. 10 nM; for inhibition at 0.05 µM: Con. 50 nM; for inhibition at 1 µM: Con. 1000 nM
Experimental: The inventors used electrophysiological methods to assay the inverse agonist efficacy of the substance to be tested. The detailed procedures are as follows: (1) Different subunits of GABAA receptors were expressed in human embryonic kidney cells 293 (HEK293). The cells were cultured in a culture medium and used as a cell model for screening potential analgesics. The α, β and γ subunits are necessary to form complete functional GABAA receptors. In this example, the inventor has established the following cell model: (a) α5 subunit (protein sequence is GenBank accession number: NP_001158509), β3 subunit (protein sequence is GenBank accession number: NP_068712) and γ2 subunit (protein sequence is GenBank accession number: NP_944494) were expressed in HEK-293 cell lines at the same time, which formed the complete functional GABAA receptors. (2) Cells were stably transfected HEK-293 cells expressing α5β3γ2 receptor, which were labeled by green fluorescent protein (GFP). Cells were grown in 10 cm dishes. The cells were passaged after reaching 80-90% confluence. During passaging, the culture medium was removed and discarded, 3 mL DMEM medium (Gibco™) was added to the dishes, the dishes were shaken slightly, and DMEM was removed and discarded. 3 mL Trypsin (Trypsin-EDTA 0.05%, Gibco™) was added and cells were digested at 37° C. for 3 minutes. Then 3 mL complete growth medium (DMEM+10% horse serum (Gibco™)) was added and the cells at the bottom of the culture dishes were dispersed. The cell suspension were transferred to a 15 mL centrifugal tube (Corning®) and then centrifuged at 200 g for 3 minutes. The supernatant was discarded, 4 mL complete growth medium was added, and the cells were resuspended by gently blowing. The cell suspension was diluted by 1:5 or 1:10 for subculturing. The cell suspension was diluted by 1:12 for electrophysiology experiment, which are added to the 24 well plate (Corning®) which has a glass slide pre-treated with poly-D-lysine. The cells were adhered to the slide before the experiment was conducted. The cells were maintained in culture for no more than 24 hours before use. (3) Compound concentration: for screening, all compounds were diluted to a final concentration of 100 nM. GABA was diluted at the concentration of 0.05-0.1 μM. The compounds were at the concentration of 1 nM, 10 nM, 50 nM, 100 nM and 1000 nM in dose-inverse agonism efficacy (%) experiment. The whole cell patch clamp technique was used in electrophysiology experiments. The extracellular solution (ECS) contained: 150 mM NaCl, 5 mM KCl, 2.5 mM CaCl2, 1 mM MgCl2, 10 mM HEPES and 10 mM glucose (pH 7.4); Patch electrodes were filled with an intracellular solution containing: 140 mM KCl, 5 mM EGTA, 10 mM HEPES (adjusted to pH 7.4 with KOH and to 320-330 mOsm with water). The currents were recorded by an EPC-10 amplifier and the PatchMaster software (HEKA). Patch electrodes with a resistance of 5-6 MΩ were pulled from borosilicate glass (Sutter). The diluted compounds were perfused by OCTAFLOWII system. GFP positive and independently growing cells were selected for recording. During recording, the membrane voltage was clamped at −60 mV. During experiment, the cells were firstly perfused with ECS for 20 seconds. When the baseline reached to a stable state, cells were then perfused with GABA solution. Then the current induced by GABA can be detected. After about 20-40 seconds, the current was stable. ECS was switched to compounds solution and the effects of the compounds were detected. At last, the perfusion solution was switched to ECS. The experiment was finished when the post-baseline returned to the pre-baseline before compounds perfusion. Only the data whose pre-baseline and post-baseline are at almost the same level were used for analysis. GABA was diluted at the concentration of 0.05-0.1 μM in ECS. Then, compounds were diluted at the desired concentration in GABA ECS. (4) Currents were analyzed with the PatchMaster (HEKA) software. […]

[1] = HEK293, compound 100 nM, GABA 0.05-0.1 μM, HEK293 α5β3γ2, clamped at −60 mV, (Ipost-Ipre)*100/Ipre, read-out: inverse agonism efficacy(%)
[2] = dose-efficacy, single replicates, read-out: Inverse agonism-Efficacy
[3] = dose-efficacy, Con. 100 nM, single replicates, read-out: Inverse agonism-Efficacy

T1 sequence (P31644 32-462): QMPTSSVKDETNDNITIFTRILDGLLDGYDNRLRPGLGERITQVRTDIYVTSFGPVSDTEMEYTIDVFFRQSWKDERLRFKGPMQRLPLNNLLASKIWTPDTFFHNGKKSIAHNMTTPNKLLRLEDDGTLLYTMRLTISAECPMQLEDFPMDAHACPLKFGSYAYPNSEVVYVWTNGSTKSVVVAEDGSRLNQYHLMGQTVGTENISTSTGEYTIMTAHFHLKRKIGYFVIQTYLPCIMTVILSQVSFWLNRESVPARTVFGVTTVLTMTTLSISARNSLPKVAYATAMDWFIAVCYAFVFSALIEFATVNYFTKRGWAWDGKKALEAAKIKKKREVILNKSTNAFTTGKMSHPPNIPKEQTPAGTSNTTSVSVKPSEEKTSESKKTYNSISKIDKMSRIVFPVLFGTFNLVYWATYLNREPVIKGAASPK
T1 sequence (P28472 26-473 isoform P28472-2 partner limits assumed): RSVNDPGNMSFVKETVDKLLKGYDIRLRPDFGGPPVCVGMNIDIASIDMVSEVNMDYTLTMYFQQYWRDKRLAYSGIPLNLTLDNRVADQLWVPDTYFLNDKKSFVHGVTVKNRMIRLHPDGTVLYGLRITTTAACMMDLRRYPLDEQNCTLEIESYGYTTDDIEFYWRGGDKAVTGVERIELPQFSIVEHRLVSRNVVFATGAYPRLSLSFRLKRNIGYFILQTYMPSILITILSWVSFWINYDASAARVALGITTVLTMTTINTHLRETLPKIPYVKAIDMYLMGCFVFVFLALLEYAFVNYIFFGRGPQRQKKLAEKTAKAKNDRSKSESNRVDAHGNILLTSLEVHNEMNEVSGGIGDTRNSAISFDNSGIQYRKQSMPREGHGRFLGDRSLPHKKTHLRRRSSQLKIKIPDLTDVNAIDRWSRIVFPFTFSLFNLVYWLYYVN
T1 sequence (P18507 40-475): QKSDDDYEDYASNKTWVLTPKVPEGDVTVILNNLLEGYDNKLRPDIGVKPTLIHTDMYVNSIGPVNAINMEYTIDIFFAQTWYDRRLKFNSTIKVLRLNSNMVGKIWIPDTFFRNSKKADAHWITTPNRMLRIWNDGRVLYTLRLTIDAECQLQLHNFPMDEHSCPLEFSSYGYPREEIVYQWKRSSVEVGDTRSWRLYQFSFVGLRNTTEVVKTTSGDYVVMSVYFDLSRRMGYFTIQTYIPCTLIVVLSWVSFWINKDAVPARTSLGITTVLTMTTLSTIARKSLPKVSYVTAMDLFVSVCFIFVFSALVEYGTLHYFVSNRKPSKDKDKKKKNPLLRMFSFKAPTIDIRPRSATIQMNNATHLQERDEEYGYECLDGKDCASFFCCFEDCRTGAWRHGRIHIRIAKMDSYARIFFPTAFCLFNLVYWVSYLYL

| inhibition at 0.1 µM [1] [%] | inverse agonism efficacy of the compound/α5IA inverse agonism efficacy | inhibition at 0.001 µM [2] [%] | inhibition at 0.01 µM [2] [%] | inhibition at 0.05 µM [2] [%] | inhibition at 0.1 µM [3] [%] | inhibition at 1 µM [2] [%] | Structure (SMILES) |
| --- | --- | --- | --- | --- | --- | --- | --- |
| 32 | 1.419 | – | – | – | – | – | Cn1cc(NC(=O)c2ccc(COc3nn4c(-c5cc(CO)on5)nnc4c4ccccc34)nc2)cn1 [Compound 37, 6-(((3-(5-(hydroxymethyl)isoxazol-3-yl)-[1,2,4]triazolo[3,4-a]phthalazin-6-yl)oxy)methyl)-N-(1-methyl-1H-pyrazol-4-yl)nicotinamide] |
| 46.2 | 2.047 | – | – | – | – | – | Cc1nc(COc2nn3c(-c4cc(CO)on4)nnc3c3ccccc23)ccc1C(=O)N[C@H](C)CO [Compound 61, (R)-6-(((3-(5-(hydroxymethyl)isoxazol-3-yl)-[1,2,4]triazolo[3,4-a]phthalazin-6-yl)oxy)methyl)-N-(1-hydroxypropan-2-yl)-2-methylnicotinamide] |
| 39 | 1.73 | – | – | – | – | – | C[C@H](CO)NC(=O)c1ccc(COc2nn3c(-c4ccoc4)nnc3c3ccccc23)nc1 [Compound 59, (R)-6-(((3-(furan-3-yl)-[1,2,4]triazolo[3,4-a]phthalazin-6-yl)oxy)methyl)-N-(1-hydroxypropan-2-yl)nicotinamide] |
| 30.2 | 1.339 | – | – | – | – | – | CN(C)C(=O)c1ccc(COc2nn3c(-c4cc(CO)on4)nnc3c3ccccc23)nc1 [Compound 45, 6-(((3-(5-(hydroxymethyl)isoxazol-3-yl)-[1,2,4]triazolo[3,4-a]phthalazin-6-yl)oxy)methyl)-N,N-dimethylnicotinamide] |
| 32.6 | 1.447 | – | – | – | – | – | C[C@H](CO)NC(=O)c1ccc(COc2nn3c(-c4ccsc4)nnc3c3ccccc23)nc1 [Compound 60, (R)—N-(1-hydroxypropan-2-yl)-6-(((3-(thiophen-3-yl)-[1,2,4]triazolo[3,4-a]phthalazin-6-yl)oxy)methyl)nicotinamide] |
| 22.6 | – | 4.2 | 9.4 | 22.1 | 19 | 20.7 | Cc1cc(-c2nnc3c4ccccc4c(OCc4cn(C)nn4)nn23)no1 [α5IA, reference compound] |
| 34 | 1.508 | – | – | – | – | – | O=C(NN1CCS(=O)(=O)CC1)c1ccc(COc2nn3c(-c4cc(CO)on4)nnc3c3ccccc23)nc1 [Compound 54, N-(1,1-dioxidothiomorpholino)-6-(((3-(5-(hydroxymethyl)isoxazol-3-yl)-[1,2,4]triazolo[3,4-a]phthalazin-6-yl)oxy)methyl)nicotinamide] |
| 47.8 | 2.1179 | – | – | – | – | – | Cc1nc(-c2nnc3c4ccccc4c(OCc4ccc(C(=O)N[C@H](C)CO)cc4C#N)nn23)no1 [Compound 31, (R)-3-cyano-N-(1-hydroxypropan-2-yl)-4-(((3-(5-methyl-1,2,4-oxadiazol-3-yl)-[1,2,4]triazolo[3,4-a]phthalazin-6-yl)oxy)methyl)benzamide] |
| 36 | 1.596 | 10 | 17 | 23.1 | 26 | 32.3 | Cc1cc(-c2nnc3c4ccccc4c(OCc4ccc(C(=O)N(C)C)cn4)nn23)no1 [Compound 06, N,N-dimethyl-6-(((3-(5-methylisoxazol-3-yl)-[1,2,4]triazolo[3,4-a]phthalazin-6-yl)oxy)methyl)nicotinamide] |
| 42.1 | 1.867 | – | – | – | – | – | O=C(c1ccc(COc2nn3c(-c4cc(CO)on4)nnc3c3ccccc23)nc1)N1CCOCC1 [Compound 41, (6-(((3-(5-(hydroxymethyl)isoxazol-3-yl)-[1,2,4]triazolo[3,4-a]phthalazin-6-yl)oxy)methyl)pyridin-3-yl)(morpholino)methanone] |
| 33 | 1.463 | – | – | – | – | – | O=C(NN1CCOCC1)c1ccc(COc2nn3c(-c4cc(CO)on4)nnc3c3ccccc23)nc1 [Compound 33, 6-(((3-(5-(hydroxymethyl)isoxazol-3-yl)-[1,2,4]triazolo[3,4-a]phthalazin-6-yl)oxy)methyl)-N-morpholinonicotinamide] |
| 30.5 | 1.351 | – | – | – | – | – | NNC(=O)c1ccc(COc2nn3c(-c4cc(CO)on4)nnc3c3ccccc23)nc1 [Compound 51, 6-(((3-(5-(hydroxymethyl)isoxazol-3-yl)-[1,2,4]triazolo[3,4-a]phthalazin-6-yl)oxy)methyl)nicotinohydrazide] |
| 39.2 | 1.739 | – | – | – | – | – | Cc1cc(-c2nnc3c4ccccc4c(OCc4ccc(C(=O)N[C@H](C)CO)cc4Br)nn23)no1 [Compound 32, (R)-3-bromo-N-(1-hydroxypropan-2-yl)-4-(((3-(5-methylisoxazol-3-yl)-[1,2,4]triazolo[3,4-a]phthalazin-6-yl)oxy)methyl)benzamide] |
